# Experimental data as given in patent US12274702B2, “Nasal compositions comprising alcaftadine” (ALKEM LABORATORIES LIMITED, priority 2021, dated 2025).
# Experiments:
# [1] = Pharmacokinetics after intranasal administration in rabbits; format: in vivo, New Zealand white rabbits
# Description: The pharmacokinetic profiles for Example 1A, 1B and 1C as well as an olapatdine nasal formulation were each determined on 6 male New Zealand white rabbits. The olopatadine nasal formulation (0.6% w/v) was prepared from Olopat Max® 0.7% w/v, where Olopat Max® was diluted to 0.6% w/v by using purified water.
# (§1) The study was carried out on total 24 male New Zealand white rabbits, which were segregated into four groups (G1 to G4, 6 rabbits/group). Mild anaesthesia was induced in all rabbits by inhalation of 2% isoflurane. Three groups (G1-G3) of anaesthetized rabbits were intranasally administered 250 μL of alcaftadine once daily using the formulations of Examples 1A, 1B, and 1C. A comparator, 250 μL of olopatadine at a concentration of 0.6% w/v, was intranasally administered once-daily to a fourth group G4 of anaesthetized rabbits.
# Sampling details for the test and reference formulations: Approximately 0.5 mL of blood sample from each rabbit was withdrawn via marginal car vein into pre-labelled Eppendorf tubes containing 10% EDTA as an anticoagulant. Blood samples were withdrawn at 0 min, 5 min, 10 min, 15 min, 30 min, 60 min, 120 min, 240 min, 480 min and 1440 min after administration of test and reference formulations.
# (§2) Procedure for sample preparation: Collected blood samples were mixed gently and kept on crushed ice. Plasma samples were separated after centrifugation at 3500 rpm for 10 min at 4° C. Plasma separation was carried out within 30 min of sample collection and stored at −70±10° C. The animals were euthanized by intravenous administration of sodium thiopental injection overdose and nasal epithelium was collected. Half of the tissues of nasal epithelium were homogenized using phosphate buffered solution (20% homogenation) for quantification of alcaftadine and olopatidine. The remaining half of the tissues were stored in 10% neutral buffered formalin for detailed gross histopathological examination such as necrosis, inflammation or any changes during necropsy.
# Rabbit plasma and nasal epithelial tissue concentrations of alcaftadine or olopatidine were determined using a fit-for-purpose LC-MS/MS method with LLOQ of 0.500 ng/ml or 0.250 ng/mL, respectively. The pharmacokinetic parameters were evaluated using Phoenix WinNonlin® Ent-Version 8.0 by non-compartmental analysis.
# [2] = Nasal irritation and histopathology of nasal epithelium after intranasal administration in rabbits; format: in vivo, New Zealand white rabbits; conditions: doses 0.312 mg, 0.625 mg and 1.25 mg, all three groups
# Description: as §1, §2
# [3] = single intranasal administration, doses 0.625 to 1.25 mg, rabbits
Structure (SMILES),"Tmax ([1]; male, New Zealand white, inhaled or intranasal, single intranasal administration of 1.5 mg (250 μL, 0.6% w/v), rabbit plasma, read-out: time to reach peak concentration (Tmax)) [min]","plasma concentration / systemic exposure ([1]; intranasal, rabbits)","onset of action versus intranasal olopatadine (from Tmax) ([1]; intranasal, rabbits, olopatadine 1.5 mg)","area under the curve (AUC0-24h) [1, 3]","peak plasma concentrations (Cmax) [1, 3]","time to achieve maximum concentration (Tmax) ([1]; single intranasal instillation, dose 0.625 mg (250 μL of Example 1B), rabbit plasma) [min]",signs or symptoms of inflammation or irritation [2]
CN(C)CC/C=C1/c2ccccc2COc2ccc(CC(=O)O)cc21 [olopatadine],22.8,,,,,,
"CN1CCC(=C2c3ccccc3CCn3c(C=O)cnc32)CC1 [Alcaftadine, 6,11-dihydro-11-(1-methyl-4-piperidinylidene)-5H-imidazo[2,1-b][3]benzazepine-3-carboxaldehyde]",,dose proportional with overall low systemic exposure,faster onset of action than intranasal olopatadine,dose proportional,dose proportional,4.8,no signs or symptoms of inflammation or irritation were observed
